# Data reported in patent publication US5519049A, “Macrolides for the treatment of reversible obstructive airways diseases” (Fisons plc, priority 1989, dated 1996).
# What was measured:
# respiratory resistance = experiment: Assay for respiratory resistance (inhibitory activity after antigen inhalation challenge, oscillation method); type: in vivo, inhalation-sensitized male Hartley guinea pigs; conditions: oral pretreatment every other day, 1 mgml^-1 solution; n = 7; after ovalbumin inhalation challenge; result in words (table title)
# Method: (§1) Assay for inhibitory activity against respiratory resistance and antigen-induced bronchial hyper-responsiveness
# (§2) Male Hartley guinea pigs (weighing about 300 g) were each placed in a plastic inhalation chamber. Using an ultrasonic nebulizer (NEU10B, Omron Corporation), an aerosolized solution of ovalbumin in physiological saline (10 mgml^-1) was introduced into the chamber for 10 minutes daily for 10 consecutive days to effect sensitization. The animals were used in the experiments 5 days after establishment of sensitization.
# During the period from the first day of sensitization to the day before an antigen challenge, the animals were orally treated with a 1 mgml^-1 solution of FR-900506 (in ethanol/olive oil [2:78 v/v]) every other day. Control animals received the ethanol/olive oil vehicle alone in the same manner.
# The experimental period was 5 days from day 1 to day 5, and the inhalation challenge with the antigen was given on day 2.
# On day 1, and 30 minutes before antigen inhalation challenge on day 2, metopirone (an endogenous cortisol synthesis inhibitor) was intravenously administered (10 mgkg^-1). So that the animals could tolerate the antigen at comparatively high concentrations, chlorpheniramine maleate, an antihistaminic, was intraperitoneally administered (10 mgkg^-1) following the second dose of metopirone. […]
# (§3) The results are expressed as mean ±SEM. […]
# ddy mice = experiment: Acute intraperitoneal toxicity study; type: in vivo; conditions: 100 mgkg^-1
# [1] = tested on: antigen-induced bronchial hyper-responsiveness to acetylcholine; experiment: Assay for antigen-induced bronchial hyper-responsiveness to acetylcholine (PC200-Ach); type: in vivo, inhalation-sensitized male Hartley guinea pigs; conditions: oral pretreatment every other day, 1 mgml^-1 solution, n = 7, result in words (table title)
# Method: as §1, §2
# During the period from the first day of sensitization to the day before an antigen challenge, the animals were orally treated with a 1 mgml^-1 solution of FR-900506 (in ethanol/olive oil [2:78 v/v]) every other day. Control animals received the ethanol/olive oil vehicle alone in the same manner. […]
# Guinea pigs prepared by the method described above were placed in an animal box as described above and the baseline respiratory resistance was measured. […] From the concentration-resistance curve constructed from the acetylcholine concentration and respiratory resistance data, the acetylcholine concentration necessary for increasing the respiratory resistance to twice the baseline value [i.e. PC200 -Ach (μgml^-1)] was calculated.
# as §3
smiles,measurement,setting,value
C=CC[C@@H]1/C=C(\C)C[C@H](C)C[C@H](OC)[C@H]2O[C@@](O)(C(=O)C(=O)N3CCCC[C@H]3C(=O)O[C@H](/C(C)=C/[C@@H]3CC[C@@H](O)[C@H](OC)C3)[C@H](C)[C@@H](O)CC1=O)[C@H](C)C[C@@H]2OC [FR-900506],Inhibitory effect on respiratory resistance,respiratory resistance,Inhibitory effect
same,"Acute intraperitoneal toxicity, deaths",ddy mice,no deaths
same,Inhibitory effect on antigen induced hyper-responsiveness to acetylcholine,[1],Inhibitory effect
